Assays:
water solubility = assay type: physicochemical; details: room temperature
[1] = cited from earlier work

SMILES | solubility (water solubility) [µg/mL] | water-solubility (in words) [1]
CO[C@@H]1[C@H](N(C)C(=O)c2ccccc2)C[C@H]2O[C@]1(C)n1c3ccccc3c3c4c(c5c6ccccc6n2c5c31)C(=O)NC4 [N-benzoyl-staurosporin] | < 0.1 | –
CN[C@@H]1C[C@H]2O[C@@](C)([C@@H]1OC)n1c3ccccc3c3c4c(c5c6ccccc6n2c5c31)C(=O)NC4 [staurosporin] | – | low water-solubility
